Laboratory results from US20050245399A1, “Pyrazole derivatives as herbicidal compositions containing them” (ISHIHARA SANGYO KAISHA, LTD., priority 2004, published 2005).

Legend:
Format in all cases: in vivo
[1] = test system: barnyardgrass (Echinochloa crus-galli L.): ECHCG; test: Test Example 1 pre-emergence herbicidal activity, ECHCG; conditions: Rate 63 g a.i./ha, visually observed 20th to 23rd day after application
How it was run: (§1)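 Upland soil pot test. Formulated compound (wettable powder or emulsifiable concentrate) in water, 500 L/ha, sprayed one day after sowing before emergence; % control rated by eye on day 20–23.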

[2] = test system: crabgrass (Digitaria sanguinalis L.): DIGSA; test: Test Example 1 pre-emergence herbicidal activity, DIGSA; conditions: Rate 63 g a.i./ha, visually observed 20th to 23rd day after application
How it was run: as §1

[3] = test system: green foxtail (Setaria viridis L.): SETVI; test: Test Example 1 pre-emergence herbicidal activity, SETVI; conditions: Rate 63 g a.i./ha, visually observed 20th to 23rd day after application
How it was run: as §1

[4] = test system: redroot pigweed (Amaranthus retroflexus L.): AMARE; test: Test Example 1 pre-emergence herbicidal activity, AMARE; conditions: Rate 63 g a.i./ha, visually observed 20th to 23rd day after application
How it was run: as §1

[5] = test system: prickly sida (Sida spinosa L.): SEDSP; test: Test Example 1 pre-emergence herbicidal activity, SIDSP; conditions: Rate 63 g a.i./ha, visually observed 20th to 23rd day after application
How it was run: as §1

[6] = test system: velvetleaf (Abutilon theophrasti): ABUTH; test: Test Example 1 pre-emergence herbicidal activity, ABUTH; conditions: Rate 63 g a.i./ha, visually observed 20th to 23rd day after application
How it was run: as §1

[7] = test system: rice (Oryza sativa L.): ORYSA; test: Test Example 1 pre-emergence herbicidal activity, ORYSA; conditions: Rate 63 g a.i./ha, visually observed 20th to 23rd day after application
How it was run: as §1

[8] = test system: wheat (Triticum aestivum L.): TRZAX; test: Test Example 1 pre-emergence herbicidal activity, TRZAX; conditions: Rate 63 g a.i./ha, visually observed 20th to 23rd day after application
How it was run: as §1

[9] = test system: corn (Zea mays L.): ZEAMX; test: Test Example 1 pre-emergence herbicidal activity, ZEAMX; conditions: Rate 63 g a.i./ha, visually observed 20th to 23rd day after application
How it was run: as §1

[10] = test system: soybean (Glycine max Merr.): GLXMA; test: Test Example 1 pre-emergence herbicidal activity, GLXMA; conditions: Rate 63 g a.i./ha, visually observed 20th to 23rd day after application
How it was run: as §1

[11] = test system: barnyardgrass (Echinochloa crus-galli L.), ECHCG; test: Test Example 2 post-emergence (foliage treatment) herbicidal activity, ECHCG; conditions: 63 g a.i./ha
How it was run: (§2)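 Leaf stages at treatment differed per species: 1.1-2.1 for ECHCG, 1.0-2.0 for DIGSA, 0.1-1.5 for AMARE and 1.0-2 for ORYSA. Plants grew in pots of upland soil and were sprayed with wettable powder or emulsifiable concentrate in water (500 L/ha) plus spreader at 0.1% (v/v). Visual % control followed on days 20-23.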

[12] = test system: crabgrass (Digitaria sanguinalis L.), DIGSA; test: Test Example 2 post-emergence (foliage treatment) herbicidal activity, DIGSA; conditions: 63 g a.i./ha
How it was run: as §2

[13] = test system: green foxtail (Setaria viridis L.), SETVI; test: Test Example 2 post-emergence (foliage treatment) herbicidal activity, SETVI; conditions: 63 g a.i./ha
How it was run: (§3)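 Foliar spray of formulated compound (500 L/ha dilution water, 0.1% v/v spreader) onto young potted plants at defined leaf stages. Scored 0-100% by visual inspection 20-23 d post-spray.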

[14] = test system: redroot pigweed (Amaranthus retroflexus L.), AMARE; test: Test Example 2 post-emergence (foliage treatment) herbicidal activity, AMARE; conditions: 63 g a.i./ha
Excerpt: Upland field soil was put into a 1/170,000 ha pot, and seeds of various plants were sown. Then, when the plants reached predetermined leaf stages {1. barnyardgrass (Echinochloa crus-galli L.), ECHCG: 1.1-2.1 leaf stage, 2. crabgrass (Digitaria sanguinalis L.), DIGSA: 1.0-2.0 leaf stage, 3. green foxtail (Setaria viridis L.), SETVI: 1.0-2.2 leaf stage, 4. redroot pigweed (Amaranthus retroflexus L.), AMARE: 0.1-1.5 leaf stage, 5. prickly sida (Sida spinosa L.), SIDSP: 0.1-0.6 leaf stage, 6. velvetleaf (Abutilon theophrasti), ABUTH: 0.1-0.6 leaf stage, 7. common cocklebur (Xanthium strumarium L.), XANST: 0.1 leaf stage, 8. rice (Oryza sativa L.), ORYSA; 1.0-2 leaf stage, 9. wheat (Triticum aestivum L.), TRZAX: 2.3-3.5 leaf stage, 10. corn (Zea mays L.), ZEAMXN 2.1-2.6 leaf stage, 11. soybean (Glycine max Merr.), GLXMA: primary leaf stage}, a wettable powder or emulsifiable concentrate having the compound of the present invention formulated in accordance with a usual formulation method, was weighed so that the active ingredient would be a predetermined amount, and diluted with water in an amount of 500 L/ha. To the diluted solution, 0.1% (v/v) of an agricultural spreader was added. The herbicide adjusted was applied by a small size sprayer for foliage treatment. On the 20th to 23rd day after the application of the herbicide, the growth of the respective plants was visually observed, and the herbicidal effects were evaluated by growth controlling degrees (%) ranging from 0 (equivalent to the untreated control) to 100 (complete kill), whereby the results shown in Table 5, were obtained. Compound Nos. in Table 5 correspond to Compound Nos. in Table 1 and 2 given hereinbefore.

[15] = test system: velvetleaf (Abutilon theophrasti), ABUTH; test: Test Example 2 post-emergence (foliage treatment) herbicidal activity, ABUTH; conditions: 63 g a.i./ha
How it was run: as §3

[16] = test system: rice (Oryza sativa L.), ORYSA; test: Test Example 2 post-emergence (foliage treatment) herbicidal activity, ORYSA; conditions: 63 g a.i./ha
How it was run: as §2

[17] = test system: wheat (Triticum aestivum L.), TRZAX; test: Test Example 2 post-emergence (foliage treatment) herbicidal activity, TRZAX; conditions: 63 g a.i./ha
How it was run: as §3

[18] = test system: corn (Zea mays L.), ZEAMX; test: Test Example 2 post-emergence (foliage treatment) herbicidal activity, ZEAMX; conditions: 63 g a.i./ha
How it was run: as §3

[19] = test system: soybean (Glycine max Merr.), GLXMA; test: Test Example 2 post-emergence (foliage treatment) herbicidal activity, GLXMA; conditions: 63 g a.i./ha
How it was run: as §3

| SMILES | Pre-emergence Herbicidal Activity ECHCG (growth controlling degree) [1] [%] | Pre-emergence Herbicidal Activity DIGSP (growth controlling degree) [2] [%] | Pre-emergence Herbicidal Activity SETVI (growth controlling degree) [3] [%] | Pre-emergence Herbicidal Activity AMARE (growth controlling degree) [4] [%] | Pre-emergence Herbicidal Activity SIDSP (growth controlling degree) [5] [%] | Pre-emergence Herbicidal Activity ABUTH (growth controlling degree) [6] [%] | Pre-emergence Herbicidal Activity ORYSA (growth controlling degree) [7] [%] | Pre-emergence Herbicidal Activity TRZAX (growth controlling degree) [8] [%] | Pre-emergence Herbicidal Activity ZEAMX (growth controlling degree) [9] [%] | Pre-emergence Herbicidal Activity GLXMA (growth controlling degree) [10] [%] | growth controlling degree, ECHCO [11] [%] | growth controlling degree, DIGSP [12] [%] | growth controlling degree, SETVI [13] [%] | growth controlling degree, AMARE [14] [%] | growth controlling degree, ABUTH [15] [%] | growth controlling degree, ORYSA [16] [%] | growth controlling degree, TRZAX [17] [%] | growth controlling degree, ZEAMX [18] [%] | growth controlling degree, GLXMA [19] [%] |
| --- | --- | --- | --- | --- | --- | --- | --- | --- | --- | --- | --- | --- | --- | --- | --- | --- | --- | --- | --- |
| COc1c(Cl)cc(F)c(-c2nn(C)c(OC(F)F)c2Cl)c1NC(=O)C(C)(C)OC(C)=O [Compound 1-44] | 10 | 100 | 20 | 100 | 100 | 60 | 10 | 10 | 0 | 0 | 50 | 60 | 80 | 100 | 100 | 50 | 20 | 10 | 40 |
| COc1c(Cl)cc(F)c(-c2nn(C)c(OC(F)F)c2Cl)c1NC(=O)c1cccc(C)c1 [Compound 1-260] | 60 | 100 | 100 | 100 | 70 | 40 | 50 | 30 | 10 | 0 | 100 | 95 | 100 | 100 | 100 | 60 | 40 | 60 | 70 |
| COc1c(Cl)cc(F)c(-c2nn(C)c(OC(F)F)c2Cl)c1NC(=O)COCc1ccccc1 [Compound 1-45] | 0 | 90 | 40 | 100 | 0 | 30 | 30 | 10 | 0 | 0 | 95 | 70 | 90 | 100 | 100 | 80 | 40 | 40 | 60 |
| COc1c(Cl)cc(F)c(-c2nn(C)c(OC(F)F)c2Cl)c1NC(=O)c1ccc(F)cc1 [Compound 1-263] | 90 | 98 | 100 | 100 | 100 | 100 | 40 | 30 | 0 | 10 | 98 | 98 | 100 | 100 | 100 | 70 | 30 | 60 | 50 |
